Values of other authors, collected in US20100035939A1, “PENETRATING CARRIER, ANTI-FUNGAL COMPOSITION USING THE SAME AND METHOD FOR TREATMENT OF DERMATOPHYTES” (priority 2004, published 2010).

Test system: fungal toenail

patients with a serious reaction to the drug (in vivo, po): One in 500
Compound: CN(C/C=C/C#CC(C)(C)C)Cc1cccc2ccccc12 [terbinafine]
reoccurrence of the fungal toenail (oral administration, in the first year): 15%
